Like-named read-outs stand apart in the source and are kept apart here.
How the values were obtained:
[1] = Solvent solubility screen of Compound A (aliquot addition, HPLC of saturated solutions); assay type: physicochemical; design: key to XRPD: A: Amorphous; P1: Pattern 1; P2: Pattern 2; *Poorly crystalline; + p1: some pattern 1 peaks; conditions: for XRPD: solid from solubility screen
Method: A known volume aliquot (typically 5 volumes) of solvent was added to approximately 5 mg of Compound A. See Table 14 for the selected solvents for the solvent solubility screen.
Between each addition, the mixture was checked for dissolution and where no dissolution was apparent, the mixture was heated to ca. 40° C. and checked again. This procedure was continued until dissolution was observed or until 100 volumes of solvent had been added.
Where dissolution was not observed, solids were isolated centrifugally and analyzed by XRPD. The saturated solutions were analyzed by HPLC to obtain the solubility.

[2] = Primary crystallization screen: XRPD before and after drying at 40° C.; assay type: physicochemical; design: key to XRPD Pattern Post-Thermal Cycling / XRPD Pattern Anti-Solvent Addition / XRPD Pattern Evaporation / XRPD Pattern Post-Thermal Cycling (dried): 1—Free base Pattern 1; 2—Free base Pattern 2; 3—Free base Pattern 3; 4—Free base Pattern 4; S—Potential Salt Pattern 1; A—Amorphous; C—Counterion present; *—Poorly crystalline; t—Results obtained from temperature cycling; e—Results obtained from evaporation
Method: • 34×40 mg of Compound A was weighed into vials before the selected solvents were added to prepare slurries, where possible. See Table 29 for a list of solvent systems used and the volume of solvent used. • Stirrer bars were added to the vials, before the vials were sealed and temperature cycled with stirring between 5° C. and 40° C. The heating rate was 0.1° C./min and the samples were held at 5° C. and 40° C. for 2 hours. • After temperature cycling for 4 days, observations were made (see Table 29). Slurries were centrifuge filtered and the solids were analyzed by XRPD • The solids were dried at 40° C. for approximately 18 h before being re-analyzed by XRPD. • Saturated solutions were then split into 3 vials for the following experiments • Evaporation at ambient temperature • Cooling (5° C.). • Where no solids were obtained after 72 hours, the samples were moved to the freezer at −20° C. for further cooling. • Where no solids were obtained from further cooling, the samples were allowed to evaporate at ambient temperature. • Anti-solvent addition at ambient temperature. • Where no solids were obtained after 72 hours the samples were moved to the freezer at −20° C. to encourage crystallization. • Where no solids were obtained from cooling, the samples were allowed to evaporate at ambient temperature.

[3] = Acetonitrile:Water (75:25% v/v)
[4] = Dichloromethane:Methanol (50:50% v/v)
[5] = Dichloromethane:Methanol (75:25% v/v)

solubility ([1]; 1,4-dioxane, organic solvent or mixture, thermodynamic from solid, 1,4-Dioxane, read-out: Approximate Solubility): 100 mg/mL
solubility ([1]; 1,4-dioxane, organic solvent or mixture, thermodynamic from solid, 1,4-Dioxane, read-out: Approximate solubility): ~100 mg/mL
solubility ([1]; 1,4-dioxane, organic solvent or mixture, thermodynamic from solid, 1,4-dioxane, read-out: solubility): > 100 mg/mL
solubility ([1]; 1-butanol, 40 °C, organic solvent or mixture, thermodynamic from solid, 1-Butanol, read-out: Approximate Solubility): 0.188 mg/mL
solubility ([1]; 1-propanol, 40 °C, organic solvent or mixture, thermodynamic from solid, 1-Propanol, read-out: Approximate Solubility): 0.232 mg/mL
solubility ([1]; 2-Butanone (MEK), 40 °C, organic solvent or mixture, thermodynamic from solid, 2-Butanone (MEK), read-out: Approximate Solubility): 2.13 mg/mL
solubility ([1]; 2-Ethoxyethanol, 40 °C, organic solvent or mixture, thermodynamic from solid, 2-Ethoxyethanol, read-out: Approximate Solubility): 1.55 mg/mL
solubility ([1]; 2-Methyl THF, 40 °C, organic solvent or mixture, thermodynamic from solid, 2-Methyl THF, read-out: Approximate Solubility): 2.89 mg/mL
solubility ([1]; 2-Propanol, 40 °C, organic solvent or mixture, thermodynamic from solid, 2-Propanol, read-out: Approximate Solubility): 0.205 mg/mL
solubility ([1]; 2-propanol:water (90:10% v/v), 40 °C, organic solvent or mixture, thermodynamic from solid, 2-Propanol:Water (90:10% v/v), read-out: Approximate Solubility): 0.186 mg/mL
solubility ([1]; 3-Methyl-1-butanol, 40 °C, organic solvent or mixture, thermodynamic from solid, 3-Methyl-1-butanol, read-out: Approximate Solubility): 1.22 mg/mL
solubility ([1]; Acetone, 40 °C, organic solvent or mixture, thermodynamic from solid, Acetone, read-out: Approximate Solubility): 2.73 mg/mL
solubility ([1]; Acetonitrile, 40 °C, organic solvent or mixture, thermodynamic from solid, Acetonitrile, read-out: Approximate Solubility): 0.995 mg/mL
solubility ([1]; Anisole, organic solvent or mixture, thermodynamic from solid, Anisole, read-out: Approximate Solubility): 25 mg/mL
solubility ([1]; Butyl acetate, 40 °C, organic solvent or mixture, thermodynamic from solid, Butyl acetate, read-out: Approximate Solubility): 0.209 mg/mL
solubility ([1]; DCM, organic solvent or mixture, thermodynamic from solid, DCM, read-out: Approximate solubility): ~50 mg/mL
solubility ([1]; DCM, organic solvent or mixture, thermodynamic from solid, DCM, read-out: solubility): 50 to 100 mg/mL
solubility ([1]; DCM:methanol (50:50% v/v), organic solvent or mixture, thermodynamic from solid, DCM:methanol (50:50% v/v), read-out: solubility): 50 to 100 mg/mL
solubility ([1]; DCM:methanol (75:25% v/v), organic solvent or mixture, thermodynamic from solid, DCM:methanol (75:25% v/v), read-out: solubility): > 100 mg/mL
solubility ([1]; DMA, organic solvent or mixture, thermodynamic from solid, DMA, read-out: solubility): > 100 mg/mL
solubility ([1]; DMF, organic solvent or mixture, thermodynamic from solid, DMF, read-out: solubility): > 100 mg/mL
solubility ([1]; DMSO, organic solvent or mixture, thermodynamic from solid, DMSO, read-out: solubility): > 100 mg/mL
solubility ([1]; Dichloromethane, organic solvent or mixture, thermodynamic from solid, Dichloromethane, read-out: Approximate Solubility): 50 mg/mL
solubility ([1]; N,N′-dimethylacetamide, organic solvent or mixture, thermodynamic from solid, N,N′-Dimethylacetamide, read-out: Approximate Solubility): 100 mg/mL
solubility ([1]; N,N′-dimethylformamide, organic solvent or mixture, thermodynamic from solid, N,N′-Dimethylformamide, read-out: Approximate Solubility): 100 mg/mL
solubility ([1]; N-methylpyrrolidone, organic solvent or mixture, thermodynamic from solid, N-Methylpyrrolidone, read-out: Approximate Solubility): 50 mg/mL
solubility ([1]; NMP, organic solvent or mixture, thermodynamic from solid, NMP, read-out: solubility): 50 to 100 mg/mL
solubility ([1]; THF, organic solvent or mixture, thermodynamic from solid, THF, read-out: Approximate solubility): ~50 mg/mL
solubility ([1]; THF, organic solvent or mixture, thermodynamic from solid, THF, read-out: solubility): 50 to 100 mg/mL
solubility ([1]; THF:water (98:2% v/v), organic solvent or mixture, thermodynamic from solid, THF:water (98:2% v/v), read-out: solubility): 50 to 100 mg/mL
solubility ([1]; acetone:water (90:10% v/v), 40 °C, organic solvent or mixture, thermodynamic from solid, Acetone:Water (90:10% v/v), read-out: Approximate Solubility): 5.68 mg/mL
solubility ([1]; acetonitrile:water (75:25% v/v), 40 °C, organic solvent or mixture, thermodynamic from solid, Acetonitrile:Water (75:25% v/v), read-out: Approximate Solubility): 1.05 mg/mL
solubility ([1]; anisole, organic solvent or mixture, thermodynamic from solid, anisole, read-out: solubility): 25 to 50 mg/mL
solubility ([1]; dichloromethane:methanol (50:50% v/v), organic solvent or mixture, thermodynamic from solid, Dichloromethane:Methanol (50:50% v/v), read-out: Approximate Solubility): 50 mg/mL
solubility ([1]; dichloromethane:methanol (50:50% v/v), organic solvent or mixture, thermodynamic from solid, Dichloromethane:Methanol (50:50% v/v), read-out: Approximate solubility): ~50 mg/mL
solubility ([1]; dichloromethane:methanol (75:25% v/v), organic solvent or mixture, thermodynamic from solid, Dichloromethane:Methanol (75:25% v/v), read-out: Approximate Solubility): 100 mg/mL
solubility ([1]; diethyl ether, 40 °C, organic solvent or mixture, thermodynamic from solid, Diethyl ether, read-out: Approximate Solubility): 0.002 mg/mL
solubility ([1]; dimethylsulfoxide, organic solvent or mixture, thermodynamic from solid, Dimethylsulfoxide, read-out: Approximate Solubility): 100 mg/mL
solubility ([1]; ethanol, 40 °C, organic solvent or mixture, thermodynamic from solid, Ethanol, read-out: Approximate Solubility): 0.276 mg/mL
solubility ([1]; ethanol:water (50:50% v/v), 40 °C, aqueous with cosolvent or surfactant or cyclodextrin, thermodynamic from solid, Ethanol:Water (50:50% v/v), read-out: Approximate Solubility): 0.0192 mg/mL
solubility ([1]; ethyl acetate, 40 °C, organic solvent or mixture, thermodynamic from solid, Ethyl acetate, read-out: Approximate Solubility): 0.444 mg/mL
solubility ([1]; ethyl formate, 40 °C, organic solvent or mixture, thermodynamic from solid, Ethyl formate, read-out: Approximate Solubility): 1.01 mg/mL
solubility ([1]; heptane, 40 °C, organic solvent or mixture, thermodynamic from solid, Heptane, read-out: Approximate Solubility): 0.0017 mg/mL
solubility ([1]; isopropyl acetate, organic solvent or mixture, thermodynamic from solid, Isopropyl acetate, read-out: Approximate Solubility): 0.174 mg/mL
solubility ([1]; methanol, organic solvent or mixture, thermodynamic from solid, Methanol, read-out: Approximate Solubility): 0.437 mg/mL
solubility ([1]; methylisobutyl ketone, organic solvent or mixture, thermodynamic from solid, Methylisobutyl ketone, read-out: Approximate Solubility): 0.53 mg/mL
solubility ([1]; organic solvent or mixture, thermodynamic from solid, remaining 25 solvent systems tested, read-out: solubility): < 5 mg/mL
XRPD ([1]; 1,4-Dioxane): A
XRPD ([1]; 1-Butanol): P1
XRPD ([1]; 1-Propanol): P1
XRPD ([1]; 2-Butanone (MEK)): P1
XRPD ([1]; 2-Ethoxyethanol): P1
XRPD ([1]; 3-Methyl-1-butanol): A
XRPD ([1]; Acetone): P1
XRPD [1, 3]: A
XRPD ([1]; Butyl acetate): P1
XRPD ([1]; Dichloromethane): A
XRPD [1, 4]: A
XRPD [1, 5]: A
XRPD ([1]; Ethanol): P1
XRPD ([1]; Ethyl acetate): P1
XRPD ([1]; Heptane): A
XRPD ([1]; Toluene): A
XRPD ([1]; Water): A
XRPD ([1]; tert-Butylmethyl ether): A
solubility ([1]; tert-Butylmethyl ether, organic solvent or mixture, thermodynamic from solid, tert-Butylmethyl ether, read-out: Approximate Solubility): 0.108 mg/mL
solubility ([1]; tetrahydrofuran, organic solvent or mixture, thermodynamic from solid, Tetrahydrofuran, read-out: Approximate Solubility): 50 mg/mL
solubility ([1]; tetrahydrofuran:water (98:2% v/v), organic solvent or mixture, thermodynamic from solid, Tetrahydrofuran:Water (98:2% v/v), read-out: Approximate Solubility): 50 mg/mL
solubility ([1]; tetrahydrofuran:water (98:2% v/v), organic solvent or mixture, thermodynamic from solid, Tetrahydrofuran:Water (98:2% v/v), read-out: Approximate solubility): ~50 mg/mL
solubility ([1]; toluene, organic solvent or mixture, thermodynamic from solid, Toluene, read-out: Approximate Solubility): 0.0298 mg/mL
solubility ([1]; water, thermodynamic from solid, Water, read-out: Approximate Solubility): 0.0005 mg/mL
XRPD Pattern Anti-Solvent Addition ([2]; 1,4-Dioxane): A
XRPD Pattern Cooling ([2]; 1,4-Dioxane): A e
XRPD Pattern Evaporation ([2]; 1,4-Dioxane): A x
XRPD Pattern Post-Thermal Cycling ([2]; 1,4-Dioxane): A
XRPD Pattern Post-Thermal Cycling (dried) ([2]; 1,4-Dioxane): A *
XRPD Pattern Evaporation ([2]; 1-Propanol): A
XRPD Pattern Evaporation ([2]; 2-Butanone (MEK)): 1
XRPD Pattern Evaporation ([2]; Acetone:Water (90:10% v/v)): 2
XRPD Pattern Anti-Solvent Addition ([2]; Acetonitrile): A x
XRPD Pattern Evaporation ([2]; Acetonitrile): A +
XRPD Pattern Post-Thermal Cycling ([2]; Acetonitrile): 1
XRPD Pattern Post-Thermal Cycling (dried) ([2]; Acetonitrile): 1
XRPD Pattern Evaporation [2, 3]: 6 (6—Free base Pattern 6)
XRPD Pattern Post-Thermal Cycling [2, 3]: 6 (6—Free base Pattern 6)
XRPD Pattern Post-Thermal Cycling (dried) [2, 3]: 6 (6—Free base Pattern 6)
XRPD Pattern Post-Thermal Cycling ([2]; Anisole): 5 (5—Free base Pattern 5)
XRPD Pattern Post-Thermal Cycling (dried) ([2]; Anisole): 8 (8—Free base Pattern 8)
XRPD Pattern Post-Thermal Cycling ([2]; Butyl acetate): 1
XRPD Pattern Post-Thermal Cycling (dried) ([2]; Butyl acetate): 1
XRPD Pattern Post-Thermal Cycling ([2]; Dichloromethane): 6 (6—Free base Pattern 6)
XRPD Pattern Post-Thermal Cycling (dried) ([2]; Dichloromethane): 6 (6—Free base Pattern 6)
XRPD Pattern Post-Thermal Cycling [2, 4]: 2
XRPD Pattern Post-Thermal Cycling (dried) [2, 4]: 2
XRPD Pattern Anti-Solvent Addition [2, 5]: A
XRPD Pattern Cooling [2, 5]: A e
XRPD Pattern Evaporation ([2]; Diethyl ether): A x
XRPD Pattern Evaporation ([2]; Ethanol): A x
XRPD Pattern Evaporation ([2]; Ethanol:Water (50:50% v/v)): A x
XRPD Pattern Post-Thermal Cycling ([2]; Ethyl acetate): 1
XRPD Pattern Post-Thermal Cycling (dried) ([2]; Ethyl acetate): 1
XRPD Pattern Evaporation ([2]; Isopropyl acetate): A x
XRPD Pattern Cooling ([2]; Methanol): A e
XRPD Pattern Evaporation ([2]; Methanol): A x
XRPD Pattern Evaporation ([2]; Methylisobutyl ketone): A x
XRPD Pattern Post-Thermal Cycling ([2]; Methylisobutyl ketone): 1
XRPD Pattern Post-Thermal Cycling (dried) ([2]; Methylisobutyl ketone): 1
XRPD Pattern Anti-Solvent Addition ([2]; N,N′-Dimethylacetamide): 1
XRPD Pattern Anti-Solvent Addition ([2]; N,N′-Dimethylformamide): 1
XRPD Pattern Cooling ([2]; N,N′-Dimethylformamide): A e
XRPD Pattern Evaporation ([2]; N,N′-Dimethylformamide): 1
XRPD Pattern Post-Thermal Cycling ([2]; Tetrahydrofuran): 1
XRPD Pattern Post-Thermal Cycling (dried) ([2]; Tetrahydrofuran): 1
XRPD Pattern Anti-Solvent Addition ([2]; Tetrahydrofuran:Water (98:2% v/v)): A
XRPD Pattern Post-Thermal Cycling ([2]; Toluene): 7 (7—Free base Pattern 7)
XRPD Pattern Post-Thermal Cycling (dried) ([2]; Toluene): 8 (8—Free base Pattern 8)
XRPD Pattern Post-Thermal Cycling ([2]; Water): A
XRPD Pattern Post-Thermal Cycling (dried) ([2]; Water): A
Structure (SMILES): COc1cc(O[C@H]2C(C)(C)[C@H](NC(=O)c3ccc(N4CCC(CN5CCN(c6ccc(C(=O)N[C@H]7CCC(=O)NC7=O)c(F)c6)CC5)CC4)cc3)C2(C)C)ccc1C#N [Compound A, 4-(4-((1-(4-(((1R,3R)-3-(4-cyano-3-methoxyphenoxy)-2,2,4,4-tetramethylcyclobutyl)carbamoyl)phenyl)piperidin-4-yl)methyl)piperazin-1-yl)-N—((S)-2,6-dioxopiperidin-3-yl)-2-fluorobenzamide]
